The values that follow come from patent publication US20250346629A1, “USE OF D-ENANTIOMERIC PEPTIDE LIGANDS OF MONOMERIC ALPHA-SYNUCLEIN FOR THE THERAPY OF VARIOUS SYNUCLEINOPATHIES” (PRIAVOID GMBH, priority 2021, published 2025).

In the test the target is 15N-labeled α-syn (Homo sapiens, UniProt P37840). In words: NMR analysis (HSQC, PRE) of 15N-labeled α-syn with SVD-1a (FIG. 12). Format: binding. To be noted: 25 μM α-syn : SVD-1a 1:1, PBS pH 7.4, 10° C. As to the method: Analogs of SVD-1a spin-labeled with nitroxyl radicals were produced by reacting (1-oxyl-2,2,5,5-tetramethyl-Δ3-pyrroline-3-methyl) methanethiosulfonate (MTSL) (Toronto Research Chemicals, USA) with SVD-1a_Cys, leading to covalent bonding of the nitroxyl radical spin label MTSL to the C-terminal D-cysteine residue. A fivefold molar excess of MTSL relative to the peptide, i.e. ˜4 mg MTSL (˜15 μmol) was dissolved in 90 μl N,N-dimethylformamide (DMF) and mixed with 810 μl 200 mM HEPES/NaOH buffer, pH 7.6. The solution was then added to ˜5 mg (˜3 μmol) of lyophilized SVD-1a_Cys. […]
The samples were produced at final concentrations of 25 μM full-length ^15N-labeled acetyl-α-syn in the absence (reference) and in the presence of an equimolar amount of SVD-1a (not isotope-labeled, therefore invisible to NMR) in PBS buffer, pH 7.4, with addition of 5% D2O as internal reference. 2D-^1H-^15N-HSQC spectra were recorded back-to-back with a Bruker AVANCE NEO spectrometer (Bruker, USA) at 1200 MHz proton Larmor frequency. […]
The NMR datasets were processed using the Bruker TopSpin software (Version 4.1.1) and visualized using CcpNmr Analysis (v2.4.2) (50). […] From the residue-specific changes in chemical shift in the ^1H and ^15N dimensions, an absolute change in chemical shift was calculated according to the following formula: […]

Each structure is given as a SMILES string. Square brackets hold non-standard residues; d marks the D form. Peptide text beside a SMILES is read from it.

Turning to `CC[C@@H](C)[C@@H](NC(=O)[C@@H](Cc1c[nH]cn1)NC(=O)[C@@H](CCC(=O)O)NC(=O)[C@@H](CCC(N)=O)NC(=O)[C@@H](Cc1c[nH]c2ccccc12)NC(=O)[C@@H](Cc1ccc(O)cc1)NC(=O)[C@H](NC(=O)[C@@H](CCC(=O)O)NC(=O)[C@@H](Cc1c[nH]cn1)NC(=O)[C@H](NC(=O)[C@H]1CCCN1C(=O)[C@@H](CC(C)C)NC(=O)[C@H](N)CCCNC(=N)N)[C@H](C)O)[C@H](C)O)C(=O)N[C@H](Cc1c[nH]c2ccccc12)C(=O)N[C@H](Cc1c[nH]cn1)C(=O)N[C@H](C)C(=O)N[C@H](CCCNC(=N)N)C(=O)N[C@H](CCCNC(=N)N)C(=O)N[C@H](CCCNC(=N)N)C(=O)N[C@H](CCCNC(=N)N)C(=O)N[C@H](CCCNC(=N)N)C(N)=O` [SVD-1a, rlpthetywqehiwharrrrr] (H-[dR][dL][dP][dT][dH][dE][dT][dY][dW][dQ][dE][dH][dI][dW][dH][dA][dR][dR][dR][dR][dR]-NH2), the “binding region on α-syn (PRE intensity ratios)” value is on record as “somewhat more pronounced (transient) bonding interaction of SVD-1a with residues in the C-terminal region of α-syn”.
